Reference: patent US20190091494A1, “PEPTIDES FOR HAIR GROWTH” (Clinical Stem Cells Pty Ltd, priority 2016, published 2019)
“And” between values parts separate entries of the source, which are not always exact repeats. Equal values may be shown once. “Also recorded” adds a separate entry of the source. Where no end group is shown, it is not given here. [ ]: non-standard residue; d: D form. pGlu = O=C1CC[C@@H](C(=O)O)N1

How the values were obtained:
active hair follicles = settings: topically applied to rodent skin; cited from earlier work
inactive hair follicles = assay: Inventor's observation: activation of inactive hair follicles; settings: in vivo
hair follicles [1] = settings: active hair follicles that entered catagen; US 2011/0281802; cited from earlier work
[2] = tested on: adult subjects with a diagnosis of AGA; assay: Further clinical trial, safety: side effects and drug interaction; format: in vivo, human; settings: listed as ZT
Source text: (§1) Eighteen consecutive adult subjects were recruited, 17 males and 1 female, age range 35-90 years (mean 55.4, SD 13.3) with a diagnosis of AGA, Norwood classification 2-7, and hair loss duration range of 3-40 years (mean 15.8, SD 9.6). The trial duration for each subject ranged from 4-10 months. The test compound ZT was synthesized by standard Fmoc peptide protocols and administered in water based topical spray to the scalp. Baseline and after treatment images for hair growth were graded by two blinded assessors using two validated scales: 1. numerical visual analog scale (VAS) for global assessment 2. hair growth index (HGI) of images under higher magnification for percentage changes of vellus, intermediate and terminal hair.
(§2) Male and female adult subjects with a diagnosis of AGA were invited to participate in the study. Each subject provided written informed consent except the subject who gave verbal consent as they were unable to provide written consent due to arthritis of the hand. The study was conducted in compliance with the Declaration of Helsinki, International Conference on Harmonization Good Clinical Practice guidelines. Eighteen consecutive adult subjects were recruited (17 males and 1 […]) with an age range 35-90 years (mean 55.4, SD 13.3) with a diagnosis of AGA Norwood-Hamilton classification 2-7, and with a hair loss history ranging from 3-40 years (mean 15.8, SD 9.6). Entry time points of the volunteers occurred over 6 months with the trial completed at the same endpoint resulting in duration of treatment for subjects in the trial ranging from 4-10 months.
(§3) The product given to subjects was a 100 ml spray bottle containing 0.0005% ZT as the active test agent. Subjects were instructed to spray 1-2 ml of solution, twice daily, and rub into the scalp. The spray bottle solution was to be kept away from direct sunlight and heat. Subjects were resupplied with fresh solutions every 6-8 weeks during the trial.

scalp of subject #17 = assay: Fluorescence spectroscopy procedure of the scalp; format: in vivo, human; settings: subject #17 (30 year hair loss); 6 pre-existing terminal hairs under visible white LED light
Source text: To confirm this effect subject #17 (30 year hair loss) underwent a fluorescence spectroscopy procedure of the scalp. […] Supporting evidence was seen when comparing the assessor pooled responses of ‘total absent hair’ where 65% (13/20) of subjects improved.

hair follicles [3] = assay: Clinical trial using topical zinc thymulin: number of active hair follicles in a set scalp area; format: in vivo, Human
Description: The area near the marker affected by hair loss was photographed using a Samsung Galaxy Note 4 camera with settings F2.2, focal length 31 mm, LED flash and the number of active hair follicles in a set area were quantified.
The aqueous spray formulation prepared in Example 2 was administered topically to the scalp of the trial subjects twice daily to the hair loss region(s) of the scalp. The formulation used for subjects 1, 2 and 3 contained 0.00005% LKKTETQ peptide (molecular weight 846.48).
At 16 weeks for subject 1 and 12 weeks for subjects 2, 3 and 4, the number of active hair follicles in the set area was quantified again. Multiple set areas of hair loss were evaluated for trial subjects 1, 2 and 3. These areas are designated “a” and “b” in Table 2 and Table 3.

[4] = tested on: adult subjects with a diagnosis of AGA; assay: Further clinical trial, numbered visual analog scale (VAS) global hair assessment; format: in vivo, human; settings: for VAS after treatment: scale 0-10, one value per subject 1-18, 0.0005% spray twice daily, 4-10 months
Source text: as §1, §2, §3
(§4) Images were captured on a Samsung Galaxy Note 4 phone in high resolution (16 MB image) with flash, F 2.2 and focal length 31 mm. For assessment, baseline and after treatment images were de-identified, paired and randomly allocated with respect to left/right sides. Images were presented for analysis to assessors in Powerpoint format files on a 55 inch high resolution television screen. All images and original assessor scorecards were archived in PDF format for external reviewer confirmation.
1. Numbered visual analog scale (VAS) where the assessor gives a value between 0-10 of the image (0=total absence of hair, 10=full abundant hair) (Price, 2008).
(§5) Assessment was graded by two independent assessors in a single blind manner. Assessors underwent three training sessions over two weeks prior to the final evaluation.

[5] = tested on: adult subjects with a diagnosis of AGA; assay: Further clinical trial, Hair Growth Index (HGI) of magnified images; format: in vivo, human; settings: for HGI adjusted score A (absent) after: raw % multiplied by 0; for HGI raw score % A (absent) after / HGI raw score % I (intermediate) after / HGI raw score % T (terminal) after / HGI raw score % V (vellus) after: per subject, after trial completion
Source text: as §1, §2, §3, §4
2. Hair Growth Index (HGI) that is a more in-depth scale of analysis where higher magnification of images can identify the four types of hair regrowth that are designated as absent, vellus, intermediate or terminal (Bernado, 2003). For each image these four growth stages are given percentage values that added together give a raw score total of 100%. Each percentage value for absent, vellus, intermediate, and terminal are multiplied by 0,1,2,3 respectively to yield a final adjusted score ranging from a possible minimum score of 0 (total absence of hair) to a maximum score of 300 (full terminal hair). Scores were pooled for paired t-test, and P<0.05 was established for significance.
as §5

[6] = all 7 subject areas, 12-16 weeks
[7] = subject 4, 12 weeks, spray without LKKTETQ peptide

In the case of “LKKTETQ [leucine-leucine-lysine-threonine-glutamic acid-threonine-glutamine, added at 0.00005% (amidated & acetylated) to the spray of subjects 1-3]”, the hair growth (active hair follicles) is listed as “promotes hair growth from existing active hair follicles”.

For “pyrGlu-Ala-Lys-Ser-Gln-Gly-Gly-Ser-Asn ([pGlu]AKSQGGSN) [thymulin, nonapeptide produced by the thymus gland, CAS 63958-90-7, reference compound]”, the “activation of inactive hair follicles” value (inactive hair follicles) is given as “does not significantly activate inactive hair follicles” and the hair shaft formation (hair follicles [1]) is given as “inhibit hair shaft formation”.

In the case of “zinc thymulin: zinc complex of amidated and acetylated thymulin H3CC(O)-Pyr-Glu-Ala-Lys-Ser-Gln-Gly-Gly-Ser-Asn-NH2; tested as 0.0005% water based topical spray (Ac-[pGlu]AKSQGGSN-NH2; also: zinc complex)”, the “adverse systemic effects or local side effects (redness, scalp irritation)” value ([2]; 18 subjects, topical 0.0005% spray, total of 3,300 treatment days) is reported as “no adverse systemic effects or local side effects of redness or scalp irritation; also recorded: no redness, scalp irritation or deterioration of hair color, quality or quantity”, the “side effects reported in the entire study” value ([2]; 18 test subjects, total of 111 months (~3,300 days), attributed to a non-active constituent (citric acid buffer)) is reported as “Only one side effect; also recorded: only one side effect from a non-active constituent” and the “drug interaction with ZT” value ([2]; three subjects concurrently using minoxidil (N=2) and minoxidil/finasteride (N=1)) is reported as “did not report any drug interaction; also recorded: no observable drug interaction”. The “activation of inactive hair follicles” value (inactive hair follicles) was “effective”, the “additional developing vellus hairs revealed by spectroscopy” value (scalp of subject #17) was 59 and the “Percentage increase in active hair follicles, Average increase” value (hair follicles [3]; [6]) was 80%. The “Percentage increase in active hair follicles, Range” value (hair follicles [3]; [6]) was 6-200%, the “Number of active hair follicles after treatment per cm^2” value (hair follicles [3]; subject 1 (areas a, b), 16 weeks, spray with LKKTETQ peptide) was 21 per cm^2 and 24 per cm^2 and the “Number of active hair follicles after treatment” value (hair follicles [3]; subject 1 (areas a, b), 16 weeks, twice daily topical 0.0005% spray also containing 0.00005% LKKTETQ peptide) was 36 and 48. The “Number of active hair follicles after treatment per cm^2” value (hair follicles [3]; [7]) was 38 per cm^2, the “Percentage increase in active hair follicles” value (hair follicles [3]; [7]) was 135% and the “Number of active hair follicles after treatment” value (hair follicles [3]; subject 4, 12 weeks, twice daily topical 0.0005% spray without LKKTETQ peptide) was 40. The “VAS hair assessment improvement” value ([4]; 11 subjects who completed at least 6 months of treatment, listed as ZT) was “significant growth”, the VAS after treatment ([4]; Assessor #1) was 6 (3×) and 8 (10×) and 9 (3×) and 7 (2×) and the VAS after treatment ([4]; Assessor #2) was 6 (5×) and 8 (5×) and 7 (3×) and 4 and 9 (2×) and 5 (2×). The VAS hair growth ([4]; total group (18 subjects) at the end of the trial) was “no significant growth”, the “assessor pooled responses of 'total absent hair' improved” value ([5]; 13/20 pooled responses) was 65% and the “HGI adjusted score A (absent) after” value ([5]; Assessor #1) was 0. The “HGI adjusted score A (absent) after” value ([5]; Assessor #2) was 0, the “HGI adjusted score I (intermediate) after” value ([5]; Assessor #2, raw % multiplied by 2, listed as ZT) was 60 and 40 and the “average increase of intermediate type hairs” value ([5]; HGI assessment, at 6 months) was 23%. For the same substance, the “average increase of vellus type hairs” value ([5]; HGI assessment, at 6 months) was 32%, the “number of newly observed intermediate hairs in previous absent hair regions” value ([5]; HGI assessment, listed as ZT) was “significant increase; also recorded: highly significant increased number” and the “HGI raw score % A (absent) after” value ([5]; assessor A#1, listed as ZT) was 50% (3×) and 40% (4×) and 15% and 20% (2×). The “HGI raw score % I (intermediate) after” value ([5]; assessor A#1, listed as ZT) was 20% (2×) and 15% and 10% (2×) and 25% (5×), the “HGI raw score % T (terminal) after” value ([5]; assessor A#1, listed as ZT) was 20% (2×) and 30% (3×) and 15% and 10% (2×) and 55% and 60% and the “HGI raw score % V (vellus) after” value ([5]; assessor A#1, listed as ZT) was 10% (3×) and 20% (2×) and 25% (3×) and 15% and 5%. The “HGI raw score % A (absent) after” value ([5]; assessor A#2, listed as ZT) was 20% and 30% (3×) and 10% (3×) and 40% (2×) and 50%, the “HGI raw score % I (intermediate) after” value ([5]; assessor A#2, listed as ZT) was 30% (6×) and 20% (4×) and the “HGI raw score % T (terminal) after” value ([5]; assessor A#2, listed as ZT) was 20% (4×) and 30% (2×) and 40% and 10% (2×) and 60%. The “HGI raw score % V (vellus) after” value ([5]; assessor A#2, listed as ZT) was 30% (3×) and 20% (3×) and 0% and 40% and 10% (2×) and the Melanogenesis ([5]; higher magnification images, several (older) subjects, listed as ZT) was “Melanogenesis was observed in several subjects; also recorded: clearly observed”.
